In assay [1] the test system is cultured human mast cells (CHMC). The assay can be described thus: CHMC low cell density ionomycin activation: tryptase assay. The class given is cell-based. The following applies: read-out: LD Tryptase, CHMC, Iono, 3 pt.
Assay [2] shares this test system. The assay can be described thus: CHMC low cell density IgE activation: tryptase assay. The class given is cell-based. The following applies: IgE activation. The procedure, abridged:
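CHMC were seeded at 1000–1500 cells/well in MT buffer and incubated 1 hr at 37 °C. They were then stimulated with anti-IgE for 30 min at 37 °C, with unstimulated wells as controls. Released tryptase in the supernatant was measured with a fluorogenic substrate after 30 min at room temperature.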

The mark [3] stands for this setting: Homo sapiens, Mast cell, low cell density CHMC, tryptase, 3 pt.
The mark [4] stands for this setting: Homo sapiens, Mast cell, low cell density CHMC, tryptase, 3 pt, read-out: LD Tryptase, CHMC, IgE, 3 pt.
Setting [5] is: low cell density CHMC, tryptase, 3 pt.
Where [6] appears, read: low cell density CHMC, tryptase, 3 pt, read-out: LD Tryptase, CHMC, IgE, 3 pt.
The mark [7] stands for this setting: low cell density CHMC, tryptase, 8 pt, read-out: LD Tryptase, CHMC, IgE, 8 pt.
The mark [8] stands for this setting: Homo sapiens, Mast cell, low cell density CHMC, tryptase, 8 pt, read-out: LD Tryptase, CHMC, IgE, 8 pt.

For the compound `CC(=O)N1CCN(c2ccc(Nc3ncc(F)c(NC4CCCC4)n3)cc2)CC1` [Compound 1156, N2-[4-(4-Acetylpiperazino)phenyl]-N4-cyclopentyl-5-fluoro-2,4-pyrimidinediamine], the IC50 was greater than 10 µM in assay [1] (setting [3]) and less than 10 µM in assay [2] (setting [4]).
For `CNC(=O)c1ccc(Nc2ncc(F)c(Nc3ccc(OC)c(OC)c3)n2)cc1Cl` [Compound 464, N2-[3-Chloro-4-(N-methylamino)carbonylphenyl]-N4-(3,4-dimethoxyphenyl)-5-fluoro-2,4-pyrimidinediamine], the IC50 in assay [1] (Homo sapiens, Mast cell, low cell density, 3 pt) was greater than 10 µM; in assay [2] (Homo sapiens, Mast cell, low cell density, 3 pt, read-out: LD Tryptase, CHMC, IgE, 3 pt), less than 10 µM.
`CNC(=O)COc1cccc(Nc2ncc(F)c(N(CC(=O)OC)c3ccc4c(c3)OCCO4)n2)c1` [Compound 446, N4-(3,4-Ethylenedioxyphenyl)-5-fluoro-N4-(methoxycarbonylmethyl)-N2-[3-(N-methylamino)carbonylmethyleneoxyphenyl]-2,4-pyrimidinediamine]: the IC50 in assay [1] (setting [5]) was greater than 10 µM; in assay [2] (setting [6]), less than 10 µM.
For the compound `NC1CCOc2ccc(Nc3nc(Nc4cccc(-c5cnco5)c4)ncc3F)cc21` (racemic) [Compound 1292, (R,S)-N4-[4-Amino-3,4-dihydro-2H-1-benzopyran-6-yl]-5-fluoro-N2-[3-(oxazol-5-yl)phenyl]-2,4-pyrimidinediamine], the IC50 was greater than 10 µM in assay [1] (setting [5]), less than 10 µM in assay [2] (setting [6]) and less than 10 µM in assay [2] (setting [7]).
With “(R)-5-Fluoro-N2-[4- (N-methoxycarbonylmethyleneamino)carbonylphenyl]-N4- (2-methyl-3-oxo-2H,4H-benz[1,4]oxazin-6-yl)-2,4-pyrimidinediamine [Compound 1272]”, the IC50 in assay [1] (setting [5]) was greater than 10 µM; in assay [2] (setting [7]) it was less than 10 µM.
With `CC(=O)N1CCN(c2cccc(Nc3ncc(F)c(Nc4ccc5c(c4)OCCO5)n3)c2)CC1` [Compound 426], the IC50 is greater than 10 µM in assay [1] (setting [3]), less than 10 µM in assay [2] (setting [4]) and less than 10 µM in assay [2] (setting [8]).
On to `Cc1ccccc1Nc1ncc(F)c(Nc2ccc3c(n2)NC(=O)C(C)(C)O3)n1` [Compound 1004, N4-(2,2-Dimethyl-3-oxo-4H-5-pyrid[1,4]oxazin-6-yl)-5-fluoro-N2-(2-methylphenyl)-2,4-pyrimidinediamine], for which the IC50 in assay [1] (low cell density, 3 pt) is greater than 10 µM; in assay [2] (low cell density, 3 pt, read-out: LD Tryptase, CHMC, IgE, 3 pt) it was less than 10 µM.
For the compound `Cc1cc(C)cc(Nc2ncc(F)c(Nc3ccc4c(c3)NCC(CCO)O4)n2)c1` (centres unmarked) [Compound 255, N4-[2,3-Dihydro-2-(2-hydroxyethyl)-2H,4H-benz[1,4]oxazin-6-yl]-N2-(3,5-dimethylphenyl)-5-fluoro-2,4-pyrimidinediamine], the IC50 in assay [1] (low cell density CHMC, tryptase release, 3 pt) is greater than 10 µM; in assay [2] (low cell density CHMC, tryptase release, 3 pt, read-out: LD Tryptase, CHMC, IgE, 3 pt), less than 10 µM; in assay [2] (low cell density CHMC, tryptase release, 8 pt, read-out: LD Tryptase, CHMC, IgE, 8 pt), less than 10 µM.
With `CN1C(=O)COc2ccc(Nc3nc(Nc4ccc(-c5cnco5)cc4)ncc3F)cc21` [Compound 231], the IC50 in assay [1] (Homo sapiens, Mast cell, low cell density CHMC, tryptase release, 3 pt) was greater than 10 µM; in assay [2] (Homo sapiens, Mast cell, low cell density CHMC, tryptase release, 3 pt, read-out: LD Tryptase, CHMC, IgE, 3 pt) it was greater than 10 µM; in assay [2] (Homo sapiens, Mast cell, low cell density CHMC, tryptase release, 8 pt, read-out: LD Tryptase, CHMC, IgE, 8 pt) it was greater than 10 µM.
Regarding `CN(c1ccc2c(c1)OC(F)(F)O2)c1nc(Cl)ncc1F` [Compound 628], the IC50 in assay [1] (low cell density CHMC, tryptase release, 3 point) was greater than 10 µM; in assay [2] (low cell density CHMC, tryptase release, 3 point, read-out: LD Tryptase, CHMC, IgE, 3 pt) it was greater than 10 µM.
As for `Cc1cc(C)cc(Nc2ncc(F)c(NC3CCC3)n2)c1` [Compound 1087, N4-Cyclobutyl-N2-(3,5-dimethylphenyl)-5-fluoro-2,4-pyrimidinediamine], the IC50 in assay [1] (Homo sapiens, Mast cell, low cell density CHMC, tryptase readout, 3 pt) was greater than 10 µM; in assay [2] (Homo sapiens, Mast cell, low cell density CHMC, tryptase readout, 3 pt, read-out: LD Tryptase, CHMC, IgE, 3 pt) it was less than 10 µM; in assay [2] (Homo sapiens, Mast cell, low cell density CHMC, tryptase readout, 8 pt, read-out: LD Tryptase, CHMC, IgE, 8 pt), less than 10 µM.
Regarding `COc1cc(Nc2nc(Nc3cccc4cc(C(=O)NC(C)(C)CO)[nH]c34)ncc2F)cc(OC)c1` [Compound 389, N4-(3,5-Dimethoxyphenyl)-N2-[2-(N-1,1-dimethyl-2-hydroxyethylamino)carbonylindol-7-yl]-5-fluoro-2,4-pyrimidinediamine], the IC50 is greater than 10 µM in assay [1] (setting [5]) and less than 10 µM in assay [2] (setting [6]).
Turning to `Fc1cnc(Nc2ccc(N3CCOCC3)cc2)nc1Nc1cc(C2CC2)n[nH]1` [Compound 1121], the IC50 in assay [1] (setting [3]) is greater than 10 µM; in assay [2] (setting [4]), less than 10 µM; in assay [2] (setting [8]) it was less than 10 µM.
